The experiment has as its system endogenous NPY response. Put plainly: Endogenous NPY response in Bowes melanoma host cells. The note with it: 10 uM; human Bowes melanoma cells (HMCB), low levels of Y1 responses.

Procedure: This plasmid construct is used along with calcium phosphates to stably transfect human Bowes melanoma cells (HMCB; obtained from ATCC, Rockville, Md.), a cell line in which several Gαi-linked receptors are expressed at reasonable levels and are coupled to functional responses. Cells are maintained at 37° C. and 5% CO2 in Eagle's minimum essential medium with 0.1 mM non-essential amino acids, 1.0 mM sodium pyruvate and 25 mM HEPES which is supplemented with 10% fetal bovine serum (pH 7.3).

As for `NC(N)=NCCC[C@@H](NC(=O)C(c1ccccc1)c1ccccc1)C(=O)NCc1ccc(O)cc1` [BIBP3226], the “block of the endogenous NPY response” value was “completely blocks”.

The values above are taken from patent US6355635B1, “Compounds for the treatment of obesity” (Pfizer Inc., priority 1999, dated 2002).
